# Source: US11712438B2, “Phenyl derivatives as PGE2 receptor modulators” (IDORSIA PHARMACEUTICALS LTD, priority 2017, dated 2023)
# Assays:
# Experiment in all cases: cell-based
# [1] = target: PTGER2 (EP2) (Homo sapiens, UniProt P43116)
# [2] = target: EP4 (Homo sapiens, UniProt P35408);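 note: inhibition of PGE2-evoked (6 nM) cAMP accumulation in BT549 breast cancer cells endogenously expressing EP4, cAMP read by HTRF competitive immunoassay after 30 min at room temperature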
# [3] = target: EP2 (Homo sapiens, UniProt P43116);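 note: SF295 glioblastoma cells with endogenous EP2 only, PGE2-stimulated cAMP accumulation read by HTRF competitive immunoassay, 45 min pre-incubation then 30 min at room temperature, IBMX in buffer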
# [4] = target: PTRGER4 (EP4) (Homo sapiens, UniProt P35408);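 note: assay plate preincubated 15 min at 37 °C, after which PGE2 was added at 20 nM final and incubation continued 120 min at 37 °C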
# Sequence of PTRGER4 (EP4) (P35408 whole entry): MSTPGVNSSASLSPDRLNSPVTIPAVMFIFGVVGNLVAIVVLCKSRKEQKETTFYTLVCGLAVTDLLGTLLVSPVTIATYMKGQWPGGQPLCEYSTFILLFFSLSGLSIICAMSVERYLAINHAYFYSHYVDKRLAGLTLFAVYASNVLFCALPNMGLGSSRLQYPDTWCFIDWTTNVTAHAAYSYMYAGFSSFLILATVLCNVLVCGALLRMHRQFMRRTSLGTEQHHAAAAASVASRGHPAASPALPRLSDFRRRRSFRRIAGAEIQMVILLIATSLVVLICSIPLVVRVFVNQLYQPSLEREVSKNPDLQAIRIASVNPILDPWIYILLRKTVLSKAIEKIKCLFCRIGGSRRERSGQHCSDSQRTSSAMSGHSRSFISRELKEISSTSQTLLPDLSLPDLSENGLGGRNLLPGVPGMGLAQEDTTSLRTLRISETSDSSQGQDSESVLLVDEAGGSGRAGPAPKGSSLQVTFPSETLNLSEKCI
# Source text: The assay is using the PathHunter™ HEK 293 PTGER2 and PTGER4 b-arrestin cell lines from DiscoverX. The system is based on the Enzyme Fragment Complementation Technology. Two complementing fragments of the b-galactosidase enzyme are expressed within stably transfected cells. The larger portion of b-gal, termed EA for Enzyme Acceptor, is fused to the C-terminus of b-arrestin 2. The smaller fragment, termed ProLink™ tag, is fused to PTGER2 (EP2) or PTRGER4 (EP4) at the C-terminus. Upon activation, b-arrestin is recruited which forces the interaction of ProLink and EA, allowing complementation of the two fragments of b-gal and the formation of a functional enzyme which is capable of hydrolysing the substrate and generating a chemiluminescent signal.
# The HEK 293 PTGER4 b-arrestin cells (DiscoverX 93-030-4C1) are detached from culture dishes with a cell dissociation buffer (Invitrogen, 13151-014), and collected in growing medium (GM: DMEM+Glutamax-I (Invitrogen 32430)/10% FCS, 1% Penicilin/streptomycin). 5000 cells per well of a 384 well plate (white with white bottom Greiner 781080) are seeded in 20 ul per well of GM. Plate is incubated at 37° C., 5% CO2 for 24 hours.
# Stock solutions of test compounds are made at a concentration of 10 mM in DMSO, and serially diluted in DMSO to concentrations required for inhibition dose response curves (tested concentration range 10 μM-2 nM or 1 μM-0.2 nM).
# PGE2 (Cayman 14010, stock solution: 100 uM in DMSO) is used as agonist at 20 nM final concentration, corresponding to EC80.
# Five microliters of diluted compounds are transferred into the assay plate. Plate is pre-incubated 15 minutes at 37° C. Then five microliters of PGE2 (final conc. 20 nM) are transferred into the assay plate. Plate is incubated 120 minutes at 37° C.
# Twelve μl of reagent are transferred to the assay plate and incubate for 1 hour at room temperature in the dark. Luminescence counts are read on a BMG Fluostar Optima reader according to manufacturers instructions.
# For each compound concentration calculate of the percentage of activity compared to DMSO control value as average±STDEV. (each concentration is measured in duplicate)
# When compounds were measured multiple times, mean values are given.
# Sequence of EP4 (P35408 whole entry): as above
# Sequence of EP2 (P43116 whole entry): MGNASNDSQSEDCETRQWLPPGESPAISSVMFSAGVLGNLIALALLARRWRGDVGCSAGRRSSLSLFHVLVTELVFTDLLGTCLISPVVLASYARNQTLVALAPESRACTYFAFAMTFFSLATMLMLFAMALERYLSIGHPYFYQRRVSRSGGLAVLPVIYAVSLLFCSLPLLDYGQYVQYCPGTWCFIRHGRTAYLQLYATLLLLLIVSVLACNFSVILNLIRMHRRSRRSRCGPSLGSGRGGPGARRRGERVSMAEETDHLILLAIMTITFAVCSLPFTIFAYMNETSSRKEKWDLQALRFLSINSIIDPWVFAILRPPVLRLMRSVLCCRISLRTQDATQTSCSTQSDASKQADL
# Sequence of PTGER2 (EP2) (P43116 whole entry): as above
Structure (SMILES),IC50 [1] [nM],IC50 [2] [nM],IC50 [3] [nM],IC50 [4] [nM]
"CCOc1cc(C(F)(F)F)ccc1CCNc1cc(-c2ccc(C(=O)O)c(SC)c2)ncn1 [Example 212, 4-{6-[2-(2-Ethoxy-4-trifluoromethyl-phenyl)-ethylamino]-pyrimidin-4-yl}-2-methylsulfanyl-benzoic acid]",26,93,62,50
"CCCc1cc(-c2cc(NCCc3ccc(C(F)(F)F)cc3OCC)ncn2)ccc1C(=O)O [Example 213, 4-{6-[2-(2-Ethoxy-4-trifluoromethyl-phenyl)-ethylamino]-pyrimidin-4-yl}-2-propyl-benzoic acid]",71,300,184,217
"CCOc1cc(C(F)(F)F)ccc1CCNc1cc(-c2cc(OCC)c(C(=O)O)s2)ncn1 [Example 215, 3-Ethoxy-5-{6-[2-(2-ethoxy-4-trifluoromethyl-phenyl)-ethylamino]-pyrimidin-4-yl}-thiophene-2-carboxylic acid]",10,8,12,3
"CCOc1cc(-c2cc(NCCc3ccc(C(F)(F)F)cc3OC(F)F)ncn2)sc1C(=O)O [Example 219, 5-{6-[2-(2-Difluoromethoxy-4-trifluoromethyl-phenyl)-ethylamino]-pyrimidin-4-yl}-3-ethoxy-thiophene-2-carboxylic acid]",302,42,332,96
"CCOc1cc(-c2cc(NCCc3c(F)cc(Br)cc3F)ncn2)ccc1-c1noc(=O)[nH]1 [Example 234, 3-(4-{6-[2-(4-Bromo-2,6-difluoro-phenyl)-ethylamino]-pyrimidin-4-yl}-2-ethoxy-phenyl)-[1,2,4]oxadiazol-5(4H)-one]",77,23,93,49
"O=c1[nH]c(-c2ccc(-c3cc(NCCc4c(F)cc(Br)cc4F)ncn3)cc2)no1 [Example 235, 3-(4-{6-[2-(4-Bromo-2,6-difluoro-phenyl)-ethylamino]-pyrimidin-4-yl}-phenyl)-[1,2,4]oxadiazol-5(4H)-one]",43,149,203,89
"CC(C)COc1cc(-c2cc(NCCc3c(F)cc(Br)cc3F)ncn2)ccc1C(=O)O [Example 237, 4-{6-[2-(4-Bromo-2,6-difluoro-phenyl)-ethylamino]-pyrimidin-4-yl}-2-isobutoxy-benzoic acid]",72,668,128,419
"Cc1cc(-c2cc(NCCc3c(F)cc(Br)cc3F)ncn2)cc(C)c1O [Example 250, 4-{6-[2-(4-Bromo-2,6-difluoro-phenyl)-ethylamino]-pyrimidin-4-yl}-2,6-dimethyl-phenol]",78,887,856,169
"O=C(O)Cc1ccc(-c2cc(NCCc3c(F)cc(Br)cc3F)ncn2)cc1OC(F)F [Example 252, (4-{6-[2-(4-Bromo-2,6-difluoro-phenyl)-ethylamino]-pyrimidin-4-yl}-2-difluoromethoxy-phenyl)-acetic acid]",214,959,1910,484
"CCc1cc(-c2cc(NCCc3c(F)cc(Br)cc3F)ncn2)sc1CC(=O)O [Example 261, (5-{6-[2-(4-Bromo-2,6-difluoro-phenyl)-ethylamino]-pyrimidin-4-yl}-3-ethyl-thiophen-2yl)-acetic acid]",58,101,165,42
"O=C(O)c1cccc2cc(-c3cc(NCCc4c(F)cc(Br)cc4F)ncn3)[nH]c12 [Example 263, 2-{6-[2-(4-Bromo-2,6-difluoro-phenyl)-ethylamino]-pyrimidin-4-yl}-1H-indole-7-carboxylic acid]",31,73,167,73
"CCOc1cc(-c2cc(NCCc3c(F)cc(Br)cc3F)ncn2)[nH]c1C(=O)O [Example 268, 5-{6-[2-(4-Bromo-2,6-difluoro-phenyl)-ethylamino]-pyrimidin-4-yl}-3-ethoxy-1H-pyrrole-2-carboxylic acid]",19,225,21,294
"O=C(O)c1[nH]c(-c2cc(NCCc3c(F)cc(Br)cc3F)ncn2)cc1C1CC1 [Example 271, 5-{6-[2-(4-Bromo-2,6-difluoro-phenyl)-ethylamino]-pyrimidin-4-yl}-3-cyclopropyl-1H-pyrrole-2-carboxylic acid]",36,1760,151,380
"CCOc1cc(-c2cc(NCCc3c(F)cc(Br)cc3F)ncn2)ccc1-c1cc(O)no1 [Example 273, 5-(4-{6-[2-(4-Bromo-2,6-difluoro-phenyl)-ethylamino]-pyrimidin-4-yl}-2-ethoxy-phenyl)-isoxazol-3-ol]",45,211,364,56
"CCOc1cc(-c2cc(NCCc3cc(Br)ccc3SC)ncn2)sc1-c1noc(=O)[nH]1 [Example 275, 3-(5-{6-[2-(5-Bromo-2-methylsulfanyl-phenyl)-ethylamino]-pyrimidin-4-yl}-3-ethoxy-thiophen-2-yl)-[1,2,4]oxadiazol-5(4H)-one]",125,18,163,90
CCn1cc(-c2cc(NCCc3c(F)cc(Br)cc3F)ncn2)cc1-c1noc(=O)[nH]1 [Example 278],64,89,150,42
"CCOc1cc(-c2cc(NCCc3c(F)cc(Br)cc3F)ncn2)sc1C(N)=O [Example 279, 5-{6-[2-(4-Bromo-2,6-difluoro-phenyl)-ethylamino]-pyrimidin-4-yl}-3-ethoxy-thiophene-2-carboxylic acid amide]",46,12,72,5
"CCc1cc(-c2cc(NCCc3c(F)cc(Br)cc3F)ncn2)sc1C(N)=O [Example 281, 5-{6-[2-(4-Bromo-2,6-difluoro-phenyl)-ethylamino]-pyrimidin-4-yl}-3-ethyl-thiophene-2-carboxylic acid amide]",56,81,47,37

# Further lines, results first:
IC50 [1] [nM],IC50 [2] [nM],IC50 [3] [nM],IC50 [4] [nM],Structure (SMILES)
21,67,23,17,"CNc1cc(-c2cc(NCCc3c(F)cc(Br)cc3F)ncn2)ccc1C(N)=O [Example 216, 4-{6-[2-(4-Bromo-2,6-difluoro-phenyl)-ethylamino]-pyrimidin-4-yl}-2-methylamino-benzamide]"
20,79,134,29,"CCNc1cc(-c2cc(NCCc3c(F)cc(Br)cc3F)ncn2)ccc1C(N)=O [Example 217, 4-{6-[2-(4-Bromo-2,6-difluoro-phenyl)-ethylamino]-pyrimidin-4-yl}-2-ethylamino-benzamide]"
16,43,13,94,"CNc1cc(-c2cc(NCCc3c(F)cc(Br)cc3F)ncn2)ccc1C(=O)O [Example 231, 4-{6-[2-(4-Bromo-2,6-difluoro-phenyl)-ethylamino]-pyrimidin-4-yl}-2-methylamino-benzoic acid]"
127,405,511,72,"CCOc1cc(-c2cc(NCCc3c(F)cc(Br)cc3F)ncn2)ccc1NC=O [Example 240, N-(4-{6-[2-(4-Bromo-2,6-difluoro-phenyl)-ethylamino]-pyrimidin-4-yl}-2-ethoxy-phenyl)-formamide]"
364,280,1130,251,"CC(C)Cc1cc(-c2cc(NCCc3c(F)cc(Br)cc3F)ncn2)ccc1CC(=O)O [Example 244, (4-{6-[2-(4-Bromo-2,6-difluoro-phenyl)-ethylamino]-pyrimidin-4-yl}-2-isobutyl-phenyl)-acetic acid]"
392,6720,4630,307,"CCc1cc(-c2cc(NCCc3c(F)cc(Br)cc3F)ncn2)ccc1C(=O)OC [Example 245, 4-{6-[2-(4-Bromo-2,6-difluoro-phenyl)-ethylamino]-pyrimidin-4-yl}-2-ethyl-benzoic acid methyl ester]"
226,299,635,311,"CCCOc1cc(-c2cc(NCCc3c(F)cc(Br)cc3F)ncn2)ccc1CC(=O)O [Example 248, (4-{6-[2-(4-Bromo-2,6-difluoro-phenyl)-ethylamino]-pyrimidin-4-yl}-2-propoxy-phenyl)-acetic acid]"
46,76,45,351,"O=C(O)c1ccc(-c2cc(NCCc3c(F)cc(Br)cc3F)ncn2)cc1OC1CC1 [Example 259, 4-{6-[2-(4-Bromo-2,6-difluoro-phenyl)-ethylamino]-pyrimidin-4-yl}-2-cyclopropoxy-benzoic acid]"
23,72,59,37,"CNc1cc(-c2cc(NCCc3c(F)cc(Br)cc3F)ncn2)ccc1C(=O)NCCO [Example 276, 4-{6-[2-(4-Bromo-2,6-difluoro-phenyl)-ethylamino]-pyrimidin-4-yl}-N-(2-hydroxy-ethyl)-2-methylamino-benzamide]"
74,241,221,68,"CNc1cc(-c2cc(NCCc3c(F)cc(Br)cc3F)ncn2)ccc1C(=O)NCCOC [Example 277, 4-{6-[2-(4-Bromo-2,6-difluoro-phenyl)-ethylamino]-pyrimidin-4-yl}-N-(2-methoxy-ethyl)-2-methylamino-benzamide]"
